What all share (format): biochemical
In experiment [1] the target is T1, KIAA 1361 (baculovirus expressed human KIAA 1361 kinase domain 2-322) (Homo sapiens, UniProt Q7L7X3).
T1 construct: human KIAA 1361 kinase domain 2-322; made in house
T1 sequence (Q7L7X3 2-322): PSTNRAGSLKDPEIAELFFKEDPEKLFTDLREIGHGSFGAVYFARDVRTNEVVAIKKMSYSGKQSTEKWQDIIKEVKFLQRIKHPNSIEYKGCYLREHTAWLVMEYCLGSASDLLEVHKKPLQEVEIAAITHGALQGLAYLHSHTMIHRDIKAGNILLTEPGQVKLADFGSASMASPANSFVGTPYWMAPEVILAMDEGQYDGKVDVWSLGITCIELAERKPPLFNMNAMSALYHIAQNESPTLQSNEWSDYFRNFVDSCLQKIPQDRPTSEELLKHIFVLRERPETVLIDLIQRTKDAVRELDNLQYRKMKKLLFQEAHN
Description: KIAA 1361 Luciferase-Coupled Chemiluminescent Kinase assay (LCCA). Particulars: 2 μM ATP, 10 μM MBP, 12 nM KIAA 1361, 2 hours; read-out: KIAA1361 inhibition IC50. The procedure: (§1) Kinase activity and compound inhibition are investigated using one or more of the three assay formats described below. The ATP concentrations for each assay are selected to be close to the Michaelis-Menten constant (KM) for each individual kinase. Dose-response experiments are performed at 10 different inhibitor concentrations in a 384-well plate format. The data are fitted to four-parameter equation (2) below; where Y is the observed signal, X is the inhibitor concentration, Min is the background signal in the absence of enzyme (0% enzyme activity), Max is the signal in the absence of inhibitor (100% enzyme activity), IC50 is the inhibitor concentration at 50% enzyme inhibition and H represents the empirical Hill's slope to measure the cooperativity. Typically H is close to unity. Y=Min+(Max−Min)/(1+(X/IC50)ˆH) Equation (2) KIAA 1361 Assay: […]
(§2) KIAA 1361 biochemical activity was assessed using a Luciferase-Coupled Chemiluminescent Kinase assay (LCCA) format. Kinase activity was measured as the percent ATP remaining following the kinase reaction. Remaining ATP was detected by luciferase-luciferin-coupled chemiluminescence. Specifically, the reaction was initiated by mixing test compounds, 2 μM ATP, 10 μM MBP and 12 nM KIAA 1361 (baculovirus expressed human KIAA 1361 kinase domain 2-322) in a 20 uL assay buffer (20 mM Tris-HCL pH7.5, 10 mM MgCl2, 0.02% Triton X-100, 100 mM DTT, 2 mM MnCl2). The mixture is incubated at ambient temperature for 2 hours after which 20 uL luciferase-luciferin mix is added and the chemiluminescent signal read using a Wallac Victor^2 reader. The luciferase-luciferin mix consists of 50 mM HEPES, pH 7.8, 8.5 ug/mL oxalic acid (pH 7.8), 5 (or 50) mM DTT, 0.4% Triton X-100, 0.25 mg/mL coenzyme A, 63 uM AMP, 28 ug/mL luciferin and 40,000 units of light/mL luciferase.

Another experiment deals with T2, JIK (Homo sapiens, UniProt Q9H2K8).
T2 construct: 6 nM JIK (baculovirus expressed human KIAA 1361 kinase domain2-318); made in house
T2 sequence (Q9H2K8 2-318): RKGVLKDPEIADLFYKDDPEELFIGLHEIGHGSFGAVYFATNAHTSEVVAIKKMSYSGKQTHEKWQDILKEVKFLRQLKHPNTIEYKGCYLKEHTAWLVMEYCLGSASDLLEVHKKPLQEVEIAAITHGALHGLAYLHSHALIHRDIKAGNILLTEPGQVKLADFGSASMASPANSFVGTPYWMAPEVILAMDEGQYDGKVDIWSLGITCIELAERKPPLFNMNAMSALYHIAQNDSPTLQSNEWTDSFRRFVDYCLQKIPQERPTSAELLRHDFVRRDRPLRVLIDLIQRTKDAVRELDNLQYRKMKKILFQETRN
Description: JIK Luciferase-Coupled Chemiluminescent Kinase assay (LCCA). Particulars: 2 μM ATP, 10 μM MBP, 6 nM JIK, 2 hours; read-out: JIK inhibition IC50. How it is done: as §1
as §2, with “JIK biochemical” for “KIAA 1361 biochemical”, “and 6” for “and 12”, “nM JIK” for “nM KIAA 1361”, “kinase domain2-318)” for “kinase domain 2-322)”

The target of a further experiment is T3, TAO (Homo sapiens, UniProt Q9UL54).
T3 sequence (Q9UL54 1-1235): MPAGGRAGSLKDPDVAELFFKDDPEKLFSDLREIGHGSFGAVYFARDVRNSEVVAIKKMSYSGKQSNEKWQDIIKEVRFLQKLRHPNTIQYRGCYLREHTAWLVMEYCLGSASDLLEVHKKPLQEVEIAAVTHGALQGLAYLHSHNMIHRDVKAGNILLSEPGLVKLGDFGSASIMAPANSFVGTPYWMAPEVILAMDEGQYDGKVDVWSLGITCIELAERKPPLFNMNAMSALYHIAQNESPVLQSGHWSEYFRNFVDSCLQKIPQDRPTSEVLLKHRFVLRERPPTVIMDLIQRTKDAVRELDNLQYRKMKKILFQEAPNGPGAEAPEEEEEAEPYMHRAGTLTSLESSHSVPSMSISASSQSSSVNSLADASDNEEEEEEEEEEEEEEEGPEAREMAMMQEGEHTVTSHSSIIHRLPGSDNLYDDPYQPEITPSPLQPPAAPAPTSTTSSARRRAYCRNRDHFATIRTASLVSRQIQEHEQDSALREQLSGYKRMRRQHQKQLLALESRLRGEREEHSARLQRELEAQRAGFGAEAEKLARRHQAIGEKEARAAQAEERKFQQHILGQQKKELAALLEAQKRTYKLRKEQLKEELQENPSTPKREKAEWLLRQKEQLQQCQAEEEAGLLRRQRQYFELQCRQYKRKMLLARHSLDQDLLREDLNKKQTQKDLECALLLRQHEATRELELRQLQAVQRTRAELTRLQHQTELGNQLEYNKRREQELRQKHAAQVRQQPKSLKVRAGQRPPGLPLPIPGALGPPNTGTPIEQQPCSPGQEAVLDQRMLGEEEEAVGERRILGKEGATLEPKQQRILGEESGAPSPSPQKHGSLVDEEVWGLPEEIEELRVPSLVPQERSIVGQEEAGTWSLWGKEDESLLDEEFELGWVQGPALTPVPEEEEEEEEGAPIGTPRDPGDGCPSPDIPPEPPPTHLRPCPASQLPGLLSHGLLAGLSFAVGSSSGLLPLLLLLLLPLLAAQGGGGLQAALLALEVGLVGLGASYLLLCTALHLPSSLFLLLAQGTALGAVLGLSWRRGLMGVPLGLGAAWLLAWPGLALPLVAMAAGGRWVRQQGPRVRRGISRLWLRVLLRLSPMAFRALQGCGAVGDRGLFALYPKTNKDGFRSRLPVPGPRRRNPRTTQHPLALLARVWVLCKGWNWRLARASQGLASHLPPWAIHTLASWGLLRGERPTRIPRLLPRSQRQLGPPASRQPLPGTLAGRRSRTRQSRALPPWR
Description: TAO Luciferase-Coupled Chemiluminescent Kinase assay (LCCA). The note with it: 2 μM ATP, 10 μM MBP, 12 nM TAO, 2 hours; read-out: TAO inhibition IC50. How it is done:
as §1
as §2, with “TAO biochemical” for “KIAA 1361 biochemical”, “nM TAO” for “nM KIAA 1361”, “mM […],” for “mM HEPES,”, “[…]” for “0.25 mg/mL”

As a reminder, the IC50 is the concentration that gives 50% inhibition.

`CCCCCOc1ccc(C(=O)NCC(=O)NC2CCCc3ccccc32)cc1` (stereo not drawn) [Entry 1, N-[2-oxo-2-(1,2,3,4-tetrahydronaphthalen-1-ylamino)ethyl]-4-(pentyloxy)benzamide]: the half-inhibitory concentration (IC50) in experiment [1] was under 50 nM; on JIK it was under 50 nM; on TAO, 50 to 500 nM.

With `O=C(COc1ccc(OCc2ccccc2)cc1)NCC(=O)NC1CCCc2ccccc21` (stereo not drawn) [Entry 2, N˜2˜-[({4-[(phenylmethyl)oxy]phenyl}oxy)acetyl]-N-(1,2,3,4-tetrahydronaphthalen-1-yl)glycinamide], the IC50 was 50 to 500 nM in experiment [1], under 50 nM at JIK and 50 to 500 nM at TAO.

In the case of `O=C(COc1ccc(Br)cc1)NCC(=O)NC1CCCc2ccccc21` (stereo not drawn) [Entry 3, N˜2˜-{[(4-bromophenyl)oxy]acetyl}-N-(1,2,3,4-tetrahydronaphthalen-1-yl)glycinamide], the half-maximal inhibitory concentration (IC50) in experiment [1] is 50 to 500 nM; at JIK, under 50 nM; at TAO it was 50 to 500 nM.

Turning to `CCc1ccc(-c2ccc(C(=O)NCC(=O)NC3CCCc4ccccc43)cc2)cc1` (stereo not drawn) [Entry 4, 4′-ethyl-N-[2-oxo-2-(1,2,3,4-tetrahydronaphthalen-1-ylamino)ethyl]biphenyl-4-carboxamide], the IC50 (in experiment [1]; on JIK; on TAO) was under 50 nM in each case.

Regarding `CCc1ccc(-c2ccc(C(=O)NC(C)C(=O)NC3CCc4ccccc4C3)cc2)cc1` (stereo not drawn) [Entry 5, 4′-ethyl-N-[1-methyl-2-oxo-2-(1,2,3,4-tetrahydronaphthalen-2-ylamino)ethyl]biphenyl-4-carboxamide], the IC50 in experiment [1] is under 50 nM; on JIK, under 50 nM; on TAO it was 50 to 500 nM.

On to `CCCCCCOc1ccc(C(=O)NCC(=O)NC2CCCc3ccccc32)cc1` (stereo not drawn) [Entry 6, 4-(hexyloxy)-N-[2-oxo-2-(1,2,3,4-tetrahydronaphthalen-1-ylamino)ethyl]benzamide], for which the values for the IC50 (in experiment [1]; at JIK; on TAO) were under 50 nM, under 50 nM and 50 to 500 nM, respectively.

Consider `O=C(NC1CCCc2ccccc21)C(NC(=O)C(c1ccccc1)C1CCCC1)c1cccnc1` (stereo not drawn) [Entry 7, 2-cyclopentyl-N-[2-oxo-1-pyridin-3-yl-2-(1,2,3,4-tetrahydronaphthalen-1-ylamino)ethyl]-2-phenylacetamide], for which the values for the IC50 (in experiment [1]; on JIK; at TAO) were 50 to 500 nM, under 50 nM and 50 to 500 nM, respectively.

For `CCCCCCCOc1ccc(C(=O)NCC(=O)NC2CCCc3ccccc32)cc1` (stereo not drawn) [Entry 8, 4-(heptyloxy)-N-[2-oxo-2-(1,2,3,4-tetrahydronaphthalen-1-ylamino)ethyl]benzamide], the IC50 (in experiment [1]; on JIK; on TAO) was 50 to 500 nM in each case.

Turning to `CCCCCOc1ccc(C(=O)NC(C)C(=O)NC2CCc3ccccc3C2)cc1` (stereo not drawn) [Entry 9, N-[1-methyl-2-oxo-2-(1,2,3,4-tetrahydronaphthalen-2-ylamino)ethyl]-4-(pentyloxy)benzamide], the 50% inhibitory concentration (IC50) lay within 50 to 500 nM in experiment [1], 50 to 500 nM on JIK and 500 to 5000 nM at TAO.

As to `CCCCCCc1ccc(C(=O)NCC(=O)NC2CCCc3ccccc32)cc1` (stereo not drawn) [Entry 10, 4-hexyl-N-[2-oxo-2-(1,2,3,4-tetrahydronaphthalen-1-ylamino)ethyl]benzamide], the concentration for half-maximal inhibition (IC50) (in experiment [1]; at JIK; at TAO) was 50 to 500 nM throughout.

`CCCCCc1ccc(C(=O)NCC(=O)NC2CCCc3ccccc32)cc1` (stereo not drawn) [Entry 11, N-[2-oxo-2-(1,2,3,4-tetrahydronaphthalen-1-ylamino)ethyl]-4-pentylbenzamide]: the IC50 (in experiment [1]; at JIK; on TAO) was 50 to 500 nM in each case.

Take `CCCCCCCc1ccc(C(=O)NCC(=O)NC2CCCc3ccccc32)cc1` (stereo not drawn) [Entry 12, 4-heptyl-N-[2-oxo-2-(1,2,3,4-tetrahydronaphthalen-1-ylamino)ethyl]benzamide]: the IC50 was 50 to 500 nM in experiment [1], 50 to 500 nM at JIK and 500 to 5000 nM on TAO.

These data come from patent US20070208166A1, “Tao Kinase Modulators And Method Of Use” (Exelixis, Inc., priority 2003, published 2007).
